What was measured:
[1] = target: T1, α face pockets of the 20S core proteasome (Homo sapiens, UniProt P25787+P60900); experiment: Competition of TAT peptides with Rpt C-terminal tail peptides for α face pockets (ChT-L activity of 20S); type: biochemical
T1 construct: purified from erythrocytes; purchased Boston Biochem, Inc. or Enzo Life Sciences, Inc; host or cells: human erythrocytes
Excerpt: As mentioned herein, the binding pockets on the α face accept “anchors” from natural protein ligands of the 20S core. […] The 10-residue Rpt-derived C-terminal “tail” peptides (“Rpt peptides”) can be used as competitors with the Rpt subunits or with small allosteric ligands. Importantly, the Rpt peptides interject between the subunits with their C-termini, whereas TAT peptides, according to the modeling, use their N-termini for this purpose. To test the specificity of interactions between TAT compounds and the α face, competition experiments were performed. The 20S core was challenged with selected TAT compounds after treatment with Rpt peptides. Peptides of Rpt2 ([…]; SEQ ID NO: 10), Rpt3 ([…]; SEQ ID NO: 11), Rpt5 ([…]; SEQ ID NO: 12) and Rpt6 ([…]; SEQ ID NO: 13) subunits were selected, docking in α3/α4, α1/α2, α5/α6 and α2/α3 pockets, respectively. Tails of Rpt2, 3, and 5 display the canonical HbYX motif, whereas the LeuTrpLys C-terminus of Rpt6 may be considered “pseudo-HbYX”, with a bulky Trp replacing Tyr. Results of the competition experiments are presented as radar plots in FIG. 15. […] This pocket also emerged as the major binding site for (1) and (8). However, these compounds likely weakly competed with the Rpt2 tail for binding to the α3/α4 pocket as well. The α3/α4 pocket seemed to be favored by (6). […] These complex patterns point at the importance of allosteric effects between the α face ligands, the gate and the catalytic chamber.
Determination of Proteasome Activity. Human housekeeping core (20S) proteasome purified from erythrocytes was purchased from Boston Biochem, Inc. (Cambridge, Mass.) or from Enzo Life Sciences, Inc. (Farmingdale, N.Y.). Multiple batches of the proteasomes were used and performed reproducibly. The stock proteasome was diluted to 0.2 mg/mL working solution in “dilution buffer” (50 mM Tris/HCl, pH 8, 20% glycerol). The following model peptide substrates, releasing fluorescent 7-amino-4-methylcoumarin (AMC) reporter group after cleavage, were used: succinyl-LeuLeuValTyr-AMC (SEQ ID NO: 14) (for the ChT-L peptidase; SucLLVY-AMC; Bachem Bioscience Inc., Philadelphia, Pa.), butoxycarbonyl-LeuArgArg-AMC (T-L; Bachem Bioscience Inc., Philadelphia, Pa.) and carbobenzoxy-LeuLeuGlu-AMC (PGPH; Enzo Life Sciences Inc., Farmingdale, N.Y.). The substrates were used at concentration of 50 μM (ChT-L) or 100 μM (T-L, PGPH). Free AMC (Sigma-Aldrich, St. Louis, Mo.) was used as the standard. The C-terminal peptides derived from Rpt2, Rpt3, Rpt5 and Rpt6 were synthesized (standard solid-phase peptide chemistry) and purified to at least 98% purity by GenScript (Piscataway, N.J.). The TAT peptides, Rpt peptides (except Rpt6) and the peptide substrates were dissolved in anhydrous dimethylsulfoxide (DMSO; Sigma-Aldrich, St. Louis, Mo.) and such stock solutions were stored at −20° C. The total concentration of DMSO in final reaction mixtures never exceeded 3% (vol/vol). The Trp (tryptophan)-containing Rpt6 peptide was dissolved in ultrapure water and stored at −20° C., protected from light. The reaction was carried out in 96-well plates, in 100 μL of reaction mixture that consisted of 45 mM Tris/HCl, pH 8, 100 mM KCl, 1 mM EDTA (reaction buffer) and a fluorogenic peptide substrate, to which 200 ng (nearly […]) of proteasome were added. The addition of KCl/EDTA (ethylenediaminetetraacetic acid) to reaction buffer assured latency of the core proteasome. The proteasome was preincubated with a substrate for 10 min at room temperature, then 1 μL of DMSO or a desired concentration of a TAT peptide in 1 μL of DMSO were added. After mixing, the plate was transferred to a Fluoroskan Ascent plate reader (Thermo Fisher Scientific Inc., Waltham, Mass.) for 1 h (37° C.), with fluorescence readouts once per minute. To test the competition with Rpt derived peptides, the Rpt peptide (1 μM) was added before the TAT peptide to the reaction mixture. […]

[2] = target: 20S proteasome (Homo sapiens, UniProt P25787+P60900); details: cited from earlier work
[3] = target: T2, proteasome ChT-L activity in SK-N-SH (ATCC HTB-11) cells (Homo sapiens, UniProt P25787+P60900); experiment: ChT-L proteasome activity in lysates of SK-N-SH cells treated with TAT peptides; type: cell-based; details: 1 μM, 24 h
T2 construct: host or cells: SK-N-SH human neuroblastoma cells
Method: (§1) Cell Culture. Human SK-N-SH neuroblastoma cell line (ATCC® HTB-11™ American Type Culture Collection; Manassas, Va.) were cultured according to ATCC specifications (EMEM, 10% heat-inactivated FBS) The cells at passage 2-4 were treated with 1 μM TAT peptides or the DMSO vehicle diluted with the medium 1: 1000, for 24 h. The content of live cells was determined by the Trypan Blue-exclusion assay. The cells were harvested, washed twice in PBS, resuspended in dilution buffer (as described herein) and stored in −80° C. To prepare lysates, the thawed preparations were vortexed with glass beads and centrifuged for 5 min 5,000×g (4° C.). The supernatant was centrifuged for 20 min 14,000×g (4° C.). The resulting supernatant—“crude lysate” was diluted to 1 mg/mL of total protein with dilution buffer. 1 μg of lysate per assay (reaction buffer: 50 mM Tris/HCl pH 8, 0.1 mM MgCl2, 0.2 mM ATP, 0.1 mM dithiothreitol, 50 μM Suc-LLVY-AMC (SEQ ID NO: 14)) was used for determination of ChT-L activity in a 96-well format, as above.

[4] = target: proteasome in SK-N-SH cell lysates (Homo sapiens, UniProt P28074); experiment: ChT-L activity of SK-N-SH cell lysates exposed to Bortezomib; type: biochemical; details: 1 μM
Method: as §1

[5] = target: T3, latent human 20S proteasome (Homo sapiens, UniProt P25787+P60900); experiment: Chymotrypsin-like (ChT-L) activity of purified latent human 20S proteasome, Suc-LLVY-AMC substrate; type: biochemical
T3 construct: purified from erythrocytes; purchased Boston Biochem, Inc. or Enzo Life Sciences, Inc; host or cells: human erythrocytes
Method: Determination of Proteasome Activity. Human housekeeping core (20S) proteasome purified from erythrocytes was purchased from Boston Biochem, Inc. (Cambridge, Mass.) or from Enzo Life Sciences, Inc. (Farmingdale, N.Y.). […] The stock proteasome was diluted to 0.2 mg/mL working solution in “dilution buffer” (50 mM Tris/HCl, pH 8, 20% glycerol). The following model peptide substrates, releasing fluorescent 7-amino-4-methylcoumarin (AMC) reporter group after cleavage, were used: succinyl-LeuLeuValTyr-AMC (SEQ ID NO: 14) (for the ChT-L peptidase; SucLLVY-AMC; Bachem Bioscience Inc., Philadelphia, Pa.), butoxycarbonyl-LeuArgArg-AMC (T-L; Bachem Bioscience Inc., Philadelphia, Pa.) and carbobenzoxy-LeuLeuGlu-AMC (PGPH; Enzo Life Sciences Inc., Farmingdale, N.Y.). The substrates were used at concentration of 50 μM (ChT-L) or 100 μM (T-L, PGPH). Free AMC (Sigma-Aldrich, St. Louis, Mo.) was used as the standard. […] The TAT peptides, Rpt peptides (except Rpt6) and the peptide substrates were dissolved in anhydrous dimethylsulfoxide (DMSO; Sigma-Aldrich, St. Louis, Mo.) and such stock solutions were stored at −20° C. The total concentration of DMSO in final reaction mixtures never exceeded 3% (vol/vol). The Trp (tryptophan)-containing Rpt6 peptide was dissolved in ultrapure water and stored at −20° C., protected from light. The reaction was carried out in 96-well plates, in 100 μL of reaction mixture that consisted of 45 mM Tris/HCl, pH 8, 100 mM KCl, 1 mM EDTA (reaction buffer) and a fluorogenic peptide substrate, to which 200 ng (nearly […]) of proteasome were added. […] The proteasome was preincubated with a substrate for 10 min at room temperature, then 1 μL of DMSO or a desired concentration of a TAT peptide in 1 μL of DMSO were added. After mixing, the plate was transferred to a Fluoroskan Ascent plate reader (Thermo Fisher Scientific Inc., Waltham, Mass.) for 1 h (37° C.), with fluorescence readouts once per minute. To test the competition with Rpt derived peptides, the Rpt peptide (1 μM) was added before the TAT peptide to the reaction mixture. The reaction rates were calculated from a linear segment of kinetic curves constructed from measurements in 1-min intervals. Reaction rates were calculated using a linear fit performed with the Slope Analyser and Enzyme Kinetics applications launched within Origin Pro 2019 (OriginLab Corporation, Northampton, Mass.). […] The data are presented as mean±SD from at least three independent experiments.
Statistical Analysis. Experiments were performed at least in three independent replicates. The results are presented as a mean±SD. A two-tailed t-test was applied to compare the means. The comparisons were allowing for unequal variances with a Welch correction. Abundance of proteasome conformers was compared with the chi squared test and two-sample proportion test. A significance level was set at 0.05. Statistical analysis was performed using statistical procedures offered by OriginPro 2019 (OriginLabs, Northampton, Mass.). Reaction rates were calculated from a smoothed linear segment of kinetic traces using OriginPro 2019. Response curves (activity vs. compound concentration) were fitted with a nonlinear fitting application of OriginPro 2019. The AC50 and maximum activation fold was calculated based on the equations implemented to fit the response curves.

N=C(N)NCCC[C@H](NC(=O)CN)C(=O)N[C@@H](CCCCN)C(=O)N[C@@H](CCCCN)C(=O)N[C@@H](CCCNC(=N)N)C(=O)N[C@@H](CCCNC(=N)N)C(=O)N[C@@H](CCC(N)=O)C(=O)N[C@@H](CCCNC(=N)N)C(=O)N[C@@H](CCCNC(=N)N)C(=O)N[C@@H](CCCNC(=N)N)C(=O)N1CCC[C@H]1C(=O)N[C@@H](CO)C(=O)O [(1), reference compound]
enhanced activation with Rpt tails ([1]; 1 μM Rpt peptide): enhanced activation in the presence of one of Rpt tails, namely Rpt5 or Rpt6 | competition with Rpt tail peptides ([1]; 1 μM Rpt peptide added before the TAT peptide): weakly negative score for the Rpt2 tail to the presumed major competitor Rpt3 | degradation by 20S proteasome [2]: digested by 20S proteasome | proteasome ChT-L activity in lysates from treated cells vs control lysates [3]: lack of significant activation

CC(C)C[C@H](NC(=O)[C@H](Cc1ccccc1)NC(=O)c1cnccn1)B(O)O [Bortezomib]
effect on ChT-L activity of cell lysates (in words) [4]: almost complete abrogation of ChT-L activity

CC(C)(NC(=O)C(CCC(N)=O)NC(=O)C(CCCNC(=N)N)NC(=O)C(CCCNC(=N)N)NC(=O)C(CCCCN)NC(=O)C(CCCCN)NC(=O)C(CCCNC(=N)N)NC(=O)CN)C(=O)NC(=O)C(C)(C)C(=O)NC(CCC(N)=O)C(=O)NC(CCCNC(=N)N)C(=O)NC(CCCNC(=N)N)C(=O)NC(CCCCN)C(=O)NC(CCCCN)C(=O)NC(CCCNC(=N)N)C(=O)NCC(=O)O (stereo not shown) [Tat5-8, 9 Aib, GRKKRRQ-AibG-QRRKKRG]
AC50 ([5]; 20S proteasome AC50, Table 1, ChT-L activity, Suc-LLVY-MCA, purified human housekeeping 20S): 183 nM | activation of ChT-L activity of 20S proteasome (in words) ([5]; in vitro, latent human 20S): surprisingly excellent activator slightly less potent than Tat1-8,9Aib

From US20220332758A1, “PEPTIDE-BASED COMPOSITIONS AND METHODS FOR TREATING ALZHEIMER'S DISEASE” (Board of Regents, The Universityof Texas System, priority 2019, published 2022)
